Measurements published in PubChem BioAssay (NCI).
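Growth conditions: 96-well plates. Treatment: test compound, 48 hours, 5 concentrations. Analysis: linear interpolation between bracketing concentrations; unreached endpoints set to highest concentration. Here, GI50 denotes the concentration required for 50% inhibition of growth. TGI is the concentration that stops growth completely.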

Legend:
Experiment in all cases: NCI tumour cell line growth inhibition, 48 h
HL-60(TB) leukemia = tested on: HL-60(TB) leukemia
HCT-116 colon = tested on: HCT-116 colon
MCF7 breast = tested on: MCF7 breast
HOP-62 NSCLC = tested on: HOP-62 NSCLC
SW-620 colon = tested on: SW-620 colon
NCI-H226 lung = tested on: NCI-H226 lung
EKVX NSCLC = tested on: EKVX NSCLC
RXF 393 renal = tested on: RXF 393 renal
SK-OV-3 ovarian = tested on: SK-OV-3 ovarian
SK-MEL-28 melanoma = tested on: SK-MEL-28 melanoma
CAKI-1 renal = tested on: CAKI-1 renal
ACHN renal = tested on: ACHN renal
SNB-19 CNS = tested on: SNB-19 CNS
OVCAR-5 ovarian = tested on: OVCAR-5 ovarian
COLO 205 colon = tested on: COLO 205 colon
KM12 colon = tested on: KM12 colon
LOX IMVI melanoma = tested on: LOX IMVI melanoma
SN12C renal = tested on: SN12C renal
HS 578T breast = tested on: HS 578T breast
SNB-75 CNS = tested on: SNB-75 CNS
SF-295 CNS = tested on: SF-295 CNS
HOP-92 NSCLC = tested on: HOP-92 NSCLC
OVCAR-4 ovarian = tested on: OVCAR-4 ovarian
PC-3 prostate = tested on: PC-3 prostate
MALME-3M melanoma = tested on: MALME-3M melanoma
T-47D breast = tested on: T-47D breast
MDA-MB-435 = tested on: MDA-MB-435

SMILES: CS(=O)(=O)c1nccc(-c2c(-c3cccc(OCc4ccc(Cl)c(C(F)(F)F)c4)c3)nc3sccn23)n1
- GI50 (HL-60(TB) leukemia): 0.997 µM
- TGI (HL-60(TB) leukemia): 2.52 µM
- GI50 (HCT-116 colon): 6.53 µM
- TGI (HCT-116 colon): 12.9 µM
- GI50 (MCF7 breast): 0.937 µM
- TGI (MCF7 breast): 1.98 µM
- GI50 (HOP-62 NSCLC): 7.26 µM
- TGI (HOP-62 NSCLC): 14.1 µM
- GI50 (SW-620 colon): 1.79 µM
- TGI (SW-620 colon): 6.84 µM
- GI50 (NCI-H226 lung): 2.4 µM
- TGI (NCI-H226 lung): 11.9 µM
- GI50 (EKVX NSCLC): 6.92 µM
- TGI (EKVX NSCLC): 14.4 µM
- GI50 (RXF 393 renal): 4.31 µM
- TGI (RXF 393 renal): 10.9 µM
- GI50 (SK-OV-3 ovarian): 10.3 µM
- TGI (SK-OV-3 ovarian): 33.7 µM
- GI50 (SK-MEL-28 melanoma): 6.48 µM
- TGI (SK-MEL-28 melanoma): 13.1 µM
- GI50 (CAKI-1 renal): 7.54 µM
- TGI (CAKI-1 renal): 14.7 µM
- GI50 (ACHN renal): 5.6 µM
- TGI (ACHN renal): 11.6 µM
- GI50 (SNB-19 CNS): 6.53 µM
- TGI (SNB-19 CNS): 13 µM
- GI50 (OVCAR-5 ovarian): 8.78 µM
- TGI (OVCAR-5 ovarian): 18.8 µM
- GI50 (COLO 205 colon): 7.02 µM
- TGI (COLO 205 colon): 13.9 µM
- GI50 (KM12 colon): 9.47 µM
- TGI (KM12 colon): 17.8 µM
- GI50 (LOX IMVI melanoma): 0.809 µM
- TGI (LOX IMVI melanoma): 1.63 µM
- GI50 (SN12C renal): 7.07 µM
- TGI (SN12C renal): 23.1 µM
- GI50 (HS 578T breast): 1.69 µM
- TGI (HS 578T breast): 8.73 µM
- GI50 (SNB-75 CNS): 6.74 µM
- TGI (SNB-75 CNS): 17.9 µM
- GI50 (SF-295 CNS): 7.15 µM
- TGI (SF-295 CNS): 15.2 µM
- GI50 (HOP-92 NSCLC): 2.17 µM
- TGI (HOP-92 NSCLC): 9.74 µM
- GI50 (OVCAR-4 ovarian): 6.46 µM
- TGI (OVCAR-4 ovarian): 13.8 µM
- GI50 (PC-3 prostate): 1.8 µM
- TGI (PC-3 prostate): 6.61 µM
- GI50 (MALME-3M melanoma): 7.27 µM
- TGI (MALME-3M melanoma): 14.6 µM
- GI50 (T-47D breast): 0.881 µM
- TGI (T-47D breast): 1.82 µM
- GI50 (MDA-MB-435): 9.02 µM
- TGI (MDA-MB-435): 17.9 µM
